Here are results for four molecules from patent publication US9878977B2, “N-((3,4,5-trimethoxystyryl)aryl)cinnamamide compounds as potential anticancer agents and process for the preparation thereof” (COUNCIL OF SCIENTIFIC & INDUSTRIAL RESEARCH, priority 2014, dated 2018).

Assay [1] has as its system MCF-7. Briefly: SRB anti-proliferative assay, MCF-7. The class given is cell-based, Human. Particulars: MCF7; Human breast cancer; concentration of drug causing 50% inhibition of cell growth; read-out: GI50 MCF-7. Here is the method: (§1) The synthesized N-(3,4,5-trimethoxystyryl)aryl)cinnamamides were evaluated for their anti-proliferative activity in selected human cancer cell lines of breast cancer (MCF-7), prostate cancer (DU-145), lung cancer (Hop-62), cervical cancer (Hela), leukemia (K562), ovarian cancer (SK-OV-3), colon cancer (Colo-205), pancreatic (MAIPA-CA-2) by using sulforhodamine B (SRB) method (Vichai, V.; Kirtikara, K. Nat. Protoc. 2006, 1, 1112). […] CA-4 was used as the reference compound.

Assay [2] relates to DU-145. Briefly: SRB anti-proliferative assay, DU-145. The class given is cell-based, Human. The settings on record: DU-145; Human prostate cancer; concentration of drug causing 50% inhibition of cell growth; read-out: GI50 DU-145. Here is the method: as §1
Assay [3] deals with Hela. The assay can be described thus: SRB anti-proliferative assay, Hela. The class given is cell-based, Human. Particulars: Human cervical cancer, concentration of drug causing 50% inhibition of cell growth, read-out: GI50 Hela. As to the method:
as §1

Assay [4] concerns Colo-205. Briefly: SRB anti-proliferative assay, Colo-205. The settings on record: COLO 205; Human colon cancer; concentration of drug causing 50% inhibition of cell growth; read-out: GI50 Colo-205. It counts as cell-based, Human. As to the method: as §1
In assay [5] the test system is Hop-62. The settings on record: Human lung cancer; data from NCI60 dose response (NSC 613729); cited from earlier work.
For assay [6], the system named is K562. The settings on record: Human leukemia; data from NCI60 dose response (NSC 613729); cited from earlier work.
The test system of assay [7] is SK-OV-3. Particulars: Human ovarian cancer; data from NCI60 dose response (NSC 613729); cited from earlier work.
Assay [8] relates to Hop-62. Briefly: SRB anti-proliferative assay, Hop-62. The class given is cell-based, Human. Particulars: HOP-62; Human lung cancer; concentration of drug causing 50% inhibition of cell growth; read-out: GI50 Hop-62. Here is the method:
as §1

Assay [9] deals with K562. Briefly: SRB anti-proliferative assay, K562. It counts as cell-based, Human. Particulars: K562; Human leukemia; concentration of drug causing 50% inhibition of cell growth; read-out: GI50 K562. As to the method: as §1
Assay [10] deals with SK-OV-3. The assay can be described thus: SRB anti-proliferative assay, SK-OV-3. The class given is cell-based, Human. The settings on record: SK-OV-3; Human ovarian cancer; concentration of drug causing 50% inhibition of cell growth; read-out: GI50 SK-OV-3. Here is the method:
as §1

Assay [11] concerns MAIPA-CA-2. Briefly: SRB anti-proliferative assay, MAIPA-CA-2. The settings on record: Human pancreatic; concentration of drug causing 50% inhibition of cell growth; read-out: GI50 MAIPA-CA-2. The class given is cell-based, Human. Here is the method: as §1
Assay [12] has as its system tubulin. Particulars: reported in J. Med. Chem. 2008, 51, 6211; cited from earlier work.

Molecules are shown by their SMILES. Read-outs that look alike come from different tables or passages of the source.

Broadly, the GI50 is the concentration giving 50% growth inhibition. `COc1ccc(/C=C\c2cc(OC)c(OC)c(OC)c2)cc1O` [CA-4, combretastatin A4, reference compound]: the GI50 in [1] was 33 nM; in [2] it was 46 nM; in assay [3] it was 8 nM; in assay [4], 25 nM; in assay [5], 150 nM; in [6] it was 31 nM. Further, the GI50 in assay [7] is 31600 nM.

For the molecule `COc1ccc(/C=C/C(=O)Nc2c(C=Cc3cc(OC)c(OC)c(OC)c3)ccc(OC)c2O)cc1[N+](=O)[O-]` [Compound 20y, (E)-N-(2-Hydroxy-3-methoxy-6-(3,4,5-trimethoxystyryl)phenyl)-3-(4-methoxy-3-nitrophenyl)acrylamide], the GI50 stood at 19400 nM in assay [1]; 64700 nM in assay [2]; 71300 nM in assay [8]; 49200 nM in assay [3]; 46800 nM in assay [9]; 52600 nM in assay [10]. Further, the GI50 in assay [4] and in assay [11] was above 100000 nM throughout.

As for `COc1ccc(/C=C/C(=O)Nc2c(C=Cc3cc(OC)c(OC)c(OC)c3)ccc(OC)c2O)cc1N` [Compound 20z, (E)-3-(3-Amino-4-methoxyphenyl)-N-(2-hydroxy-3-methoxy-6-(3,4,5-trimethoxystyryl)phenyl)acrylamide], the GI50 in assay [1] stood at 50 nM; in [2], 79 nM; in [8] it was 44 nM; in assay [3] it was 91 nM; in [9], 89 nM; in assay [10], 97 nM. The GI50 worked out at 89 nM in assay [4] and 14300 nM in assay [11].

For `COc1cc(/C=C\c2ccc(OC)c(N)c2)cc(OC)c1` [Compound S3, (Z)-5-(3,5-dimethoxystyryl)-2-methoxyaniline], the “inhibits tubulin polymerization, compared with CA-4” value in assay [12] is recorded as “stronger than CA-4 by five folds”.
